We go through 15 compounds from patent publication US12428430B2 (BRISTOL-MYERS SQUIBB COMPANY, priority 2018, dated 2025).

The term IC50 denotes the concentration at which inhibition is half-maximal. Broadly, the Ki is the dissociation constant of the complex between target and ligand, obtained from inhibition or displacement. High values mean weaker binding, low ones tighter binding.

The target of assay [1] is T1, hLPA1 (Homo sapiens, UniProt Q92633). Put plainly: LPA1 functional antagonist assay (LPA-induced calcium flux in CHO cells overexpressing human LPA1). To be noted: antagonist mode, inhibition of calcium flux induced by 10 nM LPA, read-out: hLPA1 IC50. The class given is cell-based. Details: expressed in transfected cells; host or cells: Chinese hamster ovary (CHO) cells. How it is done:
The effectiveness of compounds of the present invention as LPA1 inhibitors can be determined in an LPA1 functional antagonist assay as follows:
Chinese hamster ovary cells overexpressing human LPA1 were plated overnight (15,000 cells/well) in poly-D-lysine coated 384-well microplates (Greiner bio-one, Cat #781946) in DMEM/F12 medium (Gibco, Cat #11039). Following overnight culture, cells were loaded with calcium indicator dye (AAT Bioquest Inc, Cat #34601) for 30 minutes at 37° C. The cells were then equilibrated to room temperature for 30 minutes before the assay. Test compounds solubilized in DMSO were transferred to 384 well non-binding surface plates (Corning, Cat #3575) using the Labcyte Echo acoustic dispense and diluted with assay buffer [1×HBSS with calcium/magnesium (Gibco Cat #14025-092), 20 mM HEPES (Gibco Cat #15630-080) and 0.1% fatty acid free BSA (Sigma Cat #A9205)] to a final concentration of 0.5% DMSO. Diluted compounds were added to the cells by FDSS6000 (Hamamatsu) at final concentrations ranging from 0.08 nM to 5 μM. and were then incubated for 20 min at room temperature at which time LPA (Avanti Polar Lipids Cat #857130C) was added at final concentrations of 10 nM to stimulate the cells. The compound IC50 value was defined as the concentration of test compound which inhibited 50% of the calcium flux induced by LPA alone. IC50 values were determined by fitting data to a 4-parameter logistic equation (GraphPad Prism, San Diego Calif.).

In assay [2] the target is T1, hLPA1. Put plainly: hLPA1 Binding.
The subject of assay [3] is nerve-injured mice. The conditions noted are these: pretreatment; cited from earlier work.
The subject of assay [4] is pancreatic cancer cell lines. The conditions noted are these: cited from earlier work.
Assay [5] concerns UUO mice. To be noted: compared with LPA1 (−/−) mice; cited from earlier work.
In assay [6] the test system is mouse epithelial renal cell line, MCT. To be noted: co-treatment with LPA, MCT cells; cited from earlier work.
The subject of assay [7] is human foetal lung fibroblasts. To be noted: Tager et al. Nature Medicine 2008; cited from earlier work.

T1 sequence (Q92633 whole entry): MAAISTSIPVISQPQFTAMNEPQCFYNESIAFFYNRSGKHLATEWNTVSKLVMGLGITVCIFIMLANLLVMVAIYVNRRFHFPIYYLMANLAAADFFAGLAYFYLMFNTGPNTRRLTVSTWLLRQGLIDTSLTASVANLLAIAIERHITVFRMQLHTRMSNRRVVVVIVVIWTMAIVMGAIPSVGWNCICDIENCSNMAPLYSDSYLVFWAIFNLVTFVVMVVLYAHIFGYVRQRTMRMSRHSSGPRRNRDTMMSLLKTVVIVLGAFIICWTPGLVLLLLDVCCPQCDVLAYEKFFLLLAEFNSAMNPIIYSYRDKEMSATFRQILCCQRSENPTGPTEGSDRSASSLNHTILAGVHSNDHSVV

For the compound `Cc1noc(-c2ccc(C34CCC(CC(=O)O)(CC3)CO4)cc2)c1NC(=O)O[C@H](C)C1CC1` [Example 47, 2-(1-(4-(4-((((R)-1-cyclopropylethoxy)carbonyl)amino)-3-methylisoxazol-5-yl)phenyl)-2-oxabicyclo[2.2.2]octan-4-yl)acetic acid], the concentration for half-maximal inhibition (IC50) in assay [1] worked out at 583 nM.

For the compound `Cc1noc(-c2ccc(C34CCC(CC(=O)O)(CC3)CO4)cc2)c1NC(=O)O[C@H](C)c1ccccc1Cl` [Example 48, 2-(1-(4-(4-((((R)-1-(2-chlorophenyl)ethoxy)carbonyl)amino)-3-methyl-isoxazol-5-yl)phenyl)-2-oxabicyclo[2.2.2]octan-4-yl)acetic acid], the half-maximal inhibitory concentration (IC50) in assay [1] is 354 nM.

For the compound `Cc1ccccc1[C@@H](C)OC(=O)Nc1c(C)noc1-c1ccc(C23CCC(CC(=O)O)(CC2)CO3)cc1` [Example 49, 2-(1-(4-(3-methyl-4-((((R)-1-(o-tolyl)ethoxy)carbonyl)amino)isoxazol-5-yl)phenyl)-2-oxabicyclo[2.2.2]octan-4-yl)acetic acid], the IC50 in assay [1] turned out to be 303 nM.

For the compound `Cc1noc(-c2ccc(C34CCC(CC(=O)O)(CC3)CO4)c(F)c2)c1NC(=O)O[C@H](C)c1ccccc1` [Example 50, 2-(1-(2-fluoro-4-(3-methyl-4-((((R)-1-phenylethoxy)carbonyl)amino)isoxazol-5-yl)phenyl)-2-oxabicyclo[2.2.2]octan-4-yl)acetic acid], in assay [1], the 50% inhibitory concentration (IC50) was found to be 57 nM.

For `Cc1noc(-c2ccc(C34CCC(CC(=O)O)(CC3)CO4)c(F)c2)c1NC(=O)O[C@H](C)C1CC1` [Example 51, 2-(1-(4-(4-((((R)-1-cyclopropylethoxy)carbonyl)amino)-3-methylisoxazol-5-yl)-2-fluorophenyl)-2-oxabicyclo[2.2.2]octan-4-yl)acetic acid], in assay [1], the IC50 was determined as 222 nM.

As to `Cc1noc(-c2ccc(C34CCC(CC(=O)O)(CC3)CO4)cc2)c1NC(=O)O[C@H](C)c1ccccc1F` [Example 52, 2-(1-(4-(4-((((R)-1-(2-fluorophenyl)ethoxy)carbonyl)amino)-3-methyl-isoxazol-5-yl)phenyl)-2-oxabicyclo[2.2.2]octan-4-yl)acetic acid], the IC50 in assay [1] was 134 nM.

Consider `Cc1noc(-c2ccc(C34CCC(CC(=O)O)(CC3)CO4)cc2)c1COC(=O)N(C)C1CCCC1` [Example 53, 2-(1-(4-(4-(((cyclopentyl(methyl)carbamoyl)oxy)methyl)-3-methylisoxazol-5-yl)phenyl)-2-oxabicyclo[2.2.2]octan-4-yl)acetic acid], for which, in assay [1], the half-inhibitory concentration (IC50) was 2550 nM.

Take `Cc1noc(C23CCC(c4ccc(CC(=O)O)cc4)(CC2)OC3)c1NC(=O)O[C@H](C)c1ccccc1` [Example 54, (R)-2-(4-(4-(3-methyl-4-(((1-phenylethoxy)carbonyl)amino)isoxazol-5-yl)-2-oxabicyclo[2.2.2]octan-1-yl)phenyl)acetic acid]: in assay [1], the IC50 is 88 nM.

In assay [2], `Cc1noc(C23CCC(c4ccc(CC(=O)O)cc4)(CC2)OC3)c1NC(=O)O[C@H](C)C1CC1` [Example 55, (R)-2-(4-(4-(4-(((1-cyclopropyl-ethoxy)carbonyl)amino)-3-methyl-isoxazol-5-yl)-2-oxabicyclo[2.2.2]octan-1-yl)phenyl)acetic acid] registered an inhibitory constant (Ki) of 724 nM.

`Cc1noc(C23CCC(c4ccc(CC(=O)O)cc4)(CC2)OC3)c1NC(=O)O[C@H](C)c1ccccc1Cl` [Example 56, (R)-2-(4-(4-(4-(((1-(2-chlorophenyl)ethoxy)carbonyl)amino)-3-methyl-isoxazol-5-yl)-2-oxabicyclo[2.2.2]octan-1-yl)phenyl)acetic acid]: the IC50 in assay [1] is 93 nM.

On to `Cc1noc(-c2ccc(C34CCC(CC(=O)O)(CC3)OC4)c(F)c2)c1NC(=O)O[C@H](C)c1ccccc1` [Example 57, 2-(4-(2-fluoro-4-(3-methyl-4-((((R)-1-phenylethoxy)carbonyl)amino)isoxazol-5-yl)phenyl)-2-oxabicyclo[2.2.2]octan-1-yl)acetic acid], for which the IC50 in assay [1] stood at 41 nM.

On to `Cc1noc(-c2ccc(C34CCC(CCC(=O)O)(CC3)CO4)cc2)c1NC(=O)O[C@H](C)c1ccccc1` [Example 58, 3-(1-(4-(3-methyl-4-((((R)-1-phenylethoxy)carbonyl)amino)isoxazol-5-yl)phenyl)-2-oxabicyclo[2.2.2]octan-4-yl)propanoic acid], for which the 50% inhibitory concentration (IC50) in assay [1] was 157 nM.

As for `Cc1noc(-c2cccc(C34CCC(CC(=O)O)(CC3)OC4)c2)c1NC(=O)O[C@H](C)c1ccccc1Cl` [Example 59, 2-(4-(3-(4-((((R)-1-(2-chlorophenyl)ethoxy)carbonyl)amino)-3-methylisoxazol-5-yl)phenyl)-2-oxabicyclo[2.2.2]octan-1-yl)acetic acid], in assay [1], the IC50 stood at 95 nM.

In the case of `C[C@@H](N)[C@H]1CC[C@H](C(=O)Nc2ccncc2)CC1` [Example Y-27632], in assay [3], the allodynia and hyperalgesia result is on record as “completely abolished”.

Regarding `Cc1noc(-c2ccc(CSCCC(=O)O)cc2)c1NC(=O)OC(C)c1ccccc1Cl` (stereo not shown) [Ki16425], the “in vitro migration in response to LPA and ascites from pancreatic cancer patients” value in assay [4] (Yamada et al, J. Biol. Chem. 2004) is recorded as “effectively blocked”. The “LPA-induced and ascites-induced invasion activity” value in assay [4] (highly peritoneal metastatic pancreatic cancer cell line) was “blocked”. Moreover, the “development of renal fibrosis in UUO mice” value in assay [5] is recorded as “closely resembled the profile of LPA1 (−/−) mice”. Besides, in assay [6], the “LPA-induced expression of the profibrotic cytokine CTGF” value is recorded as “almost completely suppressed”. Moreover, the “chemotaxis of human foetal lung fibroblasts induced by BAL from IPF patients” value in assay [7] is “blocked”.
